According to patent US7091346B1, “Purine derivatives and processes for their preparation” (Novartis AG, priority 1995, dated 2006):
“And” between values parts separate entries of the source, which are not always exact repeats. Equal entries are not always repeated. Structures can show the parent of a compound that is named as a salt.

melting point	SMILES
196 °C	CCn1cnc2c(Nc3cccc(Cl)c3)nc(NCC(C)(C)N)nc21.Cl
200 °C	CCn1cnc2c(Nc3cccc(C#N)c3)nc(NCCN)nc21.Cl
151 to 152 °C	CCn1cnc2c(Nc3cccc(Cl)c3)nc(NCCc3ccccc3)nc21 [Example 11, 2-(2-phenyl-ethyl-amino)-6-(3-chloro-phenyl-amino)-9-ethyl-9H-purine]
93 to 94 °C	CCn1cnc2c(Nc3cccc(Cl)c3)nc(NCCCOC)nc21 [Example 12, 2-(3-methoxy-propyl-amino)-6-(3-chloro-phenyl-amino)-9-ethyl-9H-purine]
84 to 86 °C	CCn1cnc2c(Nc3cccc(Cl)c3)nc(NCC3CCCO3)nc21 (stereo not shown) [Example 15, 2-(tetrahydrofurfuryl-amino)-6-(3-chloro-phenyl-amino)-9-ethyl-9H-purine]
182 to 184 °C	CCn1cnc2c(Nc3cccc(Cl)c3)nc(N3CCC(CCN)CC3)nc21 [Example 18, 2-[4-(2-amino-ethyl)-piperidin-1-yl]-6-(3-chloro-phenyl-amino)-9-ethyl-9H-purine]
136 °C and 136 to 137 °C	CCn1cnc2c(Nc3cccc(C(F)(F)F)c3)nc(NCCCO)nc21 [Example 24, 9-Ethyl-2-(3-hydroxy-propyl-amino)-6-(3-trifluoromethyl-phenyl-amino)-9H-purine]
166 to 167 °C	COc1cc(Nc2nc(NCCCO)nc3c2ncn3C)cc(OC)c1OC [Example 30, 2-(3-hydroxy-propyl-amino)-6-(3,4,5-trimethoxy-phenyl-amino)-9-methyl-9H-purine]
169 °C	CCn1cnc2c(Nc3cccc(Cl)c3)nc(N3CCC[C@H]3CO)nc21 [Example 40, 6-(3-chloro-phenyl-amino)-9-ethyl-2-[(S)-2-hydroxymethyl-pyrrolidin-1-yl]-9H-purine]
126 to 129 °C	CCn1cnc2c(Nc3cccc(Cl)c3)nc(N3CCC[C@@H]3CN)nc21 [Example 46, 2-[(R)-2-Aminomethyl-pyrrolidin-1-yl]-6-(3-chloro-phenyl-amino)-9-ethyl-9H-purine]
119 to 120 °C	CCn1cnc2c(Nc3cccc(Cl)c3)nc(NCC(C)N)nc21 (stereo not shown) [Example 47, 2-(2-amino-propyl-amino)-6-(3-chloro-phenyl-amino)-9-ethyl-9H-purine]
117 to 121 °C	CCn1cnc2c(Nc3cccc(Cl)c3)nc(N[C@@H](C)C(N)=O)nc21 [Example 49, 2-[(S)-1-carbamoyl-ethylamino]-6-(3-chloro-phenyl-amino)-9-ethyl-9H-purine]
> 220 °C	CCn1cnc2c(Nc3cccc(Cl)c3)nc(N(C)C(N)=O)nc21 [Example 53, 2-[carbamoyl-methyl-amino]-6-(3-chloro-phenyl-amino)-9-ethyl-9H-purine]
116.5 °C	CCn1cnc2c(Nc3cccc(Cl)c3)nc(N[C@H]3CC[C@H](O)CC3)nc21 [Example 65, 6-(3-chloro-phenyl-amino)-9-ethyl-2-(trans-4-hydroxy-cyclohexyl-amino)-9H-purine]
143 °C	CCn1cnc2c(Nc3cccc(Cl)c3)nc(NC3CCCCC3)nc21 [Example 85, 6-(3-chloro-phenyl-amino)-2-cyclohexylamino-9-ethyl-9H-purine]
161 °C	CCn1cnc2c(Nc3cccc(Cl)c3)nc(NC[C@@H](C)O)nc21 [Example 88, 6-(3-chloro-phenyl-amino)-9-ethyl-2-[(R)-2-hydroxy-propylamino]-9H-purine]
> 250 °C	CC(C)n1cnc2c(Nc3cccc(F)c3)nc(NCCN)nc21 [Example 91, 2-(2-Amino-ethyl-amino)-6-(3-fluoro-phenyl-amino)-9-isopropyl-9H-purine]
184 °C	CCn1cnc2c(Nc3cccc(F)c3)nc(NCCO)nc21 [Example 92, 2-(2-hydroxy-ethyl-amino)-6-(3-fluoro-phenyl-amino)-9-ethyl-9H-purine]
> 250 °C	CCn1cnc2c(Nc3cccc(C(F)(F)F)c3)nc(NCCN)nc21 [Example 95, 2-(2-amino-ethyl-amino)-9-ethyl-6-(3-trifluoromethyl-phenyl-amino)-9H-purine]

The remaining lines, values behind:

SMILES	melting point
COc1cccc(Nc2nc(NN)nc3c2ncn3C(C)C)c1.Cl	250 °C
CC(C)n1cnc2c(Nc3ccc(F)cc3)nc(NCCN)nc21.Cl	> 250 °C
CCn1cnc2c(Nc3ccc(F)cc3)nc(NCCN)nc21.Cl	> 250 °C
CC(C)n1cnc2c(Nc3cccc(Cl)c3)nc(NCCN)nc21 (as salt: ammonium) [Example 4, 2-(2-Amino-ethylamino)-6-(3-chloro-phenyl-amino)-9-isopropyl-9H-purine]	55 to 56 °C
CCn1cnc2c(Nc3cccc(Cl)c3)nc(N(CCO)CCO)nc21 [Example 2, 6-(3-chloro-phenylamino)-2-(di-[2-hydroxy-ethyl]-amino)-9-ethyl-9H-purine]	148 to 149 °C
CCn1cnc2c(Nc3cccc(Cl)c3)nc(NCc3ccccc3)nc21 [Example 10, 2-benzylamino-6-(3-chloro-phenyl-amino)-9-ethyl-9H-purine]	88 to 90 °C
CCn1cnc2c(Nc3cccc(Cl)c3)nc(NCCc3ccccn3)nc21 [Example 16, 2-[2-(2-pyridyl)-ethyl-amino]-6-(3-chloro-phenyl-amino)-9-ethyl-9H-purine]	152 to 153 °C
CCn1cnc2c(Nc3cccc(Cl)c3)nc(NCCc3c[nH]c4ccccc34)nc21 [Example 20, 2-[2-(3-indolyl)-ethyl-amino]-6-(3-chloro-phenyl-amino)-9-ethyl-9H-purine]	106 to 108 °C
CCn1cnc2c(Nc3cccc(Cl)c3)nc(N(C)C3(O)CCCCC3)nc21 [Example 22, 6-(3-chloro-phenyl-amino)-2-([1-hydroxy-cyclohex-1-yl]-methylamino)-9-ethyl-9H-purine]	143 to 145 °C
CCn1cnc2c(Nc3cccc(Cl)c3)nc(N3CCNCC3)nc21 [Example 23, 6-(3-chloro-phenylamino)-9-ethyl-2-piperazino-9H-purine]	181.5 to 182.5 °C
CCn1cnc2c(Nc3cccc(C(=O)NCCCO)c3C)nc(NCCCO)nc21 [Example 25, 9-ethyl-2-(3-hydroxy-propyl-amino)-6-[3-[(3-hydroxy-propyl)-aminocarbonyl]-2-methyl-phenyl-amino]-9H-purine]	138 to 142 °C
COc1cccc(Nc2nc(NCCCO)nc3c2ncn3C(C)C)c1 [Example 27, 2-(3-hydroxy-propyl-amino)-6-(3-methoxy-phenyl-amino)-9-isopropyl-9H-purine]	128 to 129 °C
COc1cccc(Nc2nc(NCCCO)nc3c2ncn3CCO)c1 [Example 28, 9-(2-hydroxy-ethyl)-2-(3-hydroxy-propyl-amino)-6-(3-methoxy-phenyl-amino)-9H-purine]	132 to 133 °C
CCn1cnc2c(Nc3cccc(Cl)c3)nc(Nc3cccc(N)c3)nc21 [Example 42, 2-[3-amino-phenylamino]-6-(3-chloro-phenyl-amino)-9-ethyl-9H-purine]	205 °C
CCn1cnc2c(Nc3cccc(Cl)c3)nc(N3CCC[C@@H]3C(N)=O)nc21 [Example 45, 2-[(R)-(−)-2-carbamoyl-pyrrolidin-1-yl]-6-(3-chloro-phenyl-amino)-9-ethyl-9H-purine]	> 230 °C
CCn1cnc2c(Nc3cccc(Cl)c3)nc(N3CCCC(NC=O)C3)nc21 (stereo not shown) [Example 48, 6-(3-chloro-phenyl-amino)-9-ethyl-2-(3-formylamino-piperidin-1-yl)-9H-purine]	184.3 °C
CCn1cnc2c(Nc3cccc(Cl)c3)nc(N3CCC4(CC3)OCCO4)nc21 [Example 54, 6-(3-chloro-phenyl-amino)-2-(1,4-dioxa-8-azaspiro[4.5]dec-8-yl)-9-ethyl-9H-purine]	159 to 161 °C
CCn1cnc2c(Nc3cccc(Cl)c3)nc(N(CCO)C3CCCCC3)nc21 [Example 62, 6-(3-chloro-phenyl-amino)-2-[N-cyclohexyl-N-(2-hydroxy-ethyl)-amino]-9-ethyl-9H-purine]	125 to 128 °C
CCn1cnc2c(Nc3cccc(Cl)c3)nc(N3CCC[C@H]3C(N)=O)nc21 [Example 64, 2-[(S)-2-carbamoyl-pyrrolidin-1-yl]-6-(3-chloro-phenyl-amino)-9-ethyl-9H-purine]	> 240 °C
CCn1cnc2c(Nc3cccc(Cl)c3)nc(N3CCCC(N)C3)nc21 (stereo not shown) [Example 66, 2-(3-amino-piperidin-1-yl)-6-(3-chloro-phenyl-amino)-9-ethyl-9H-purine]	165 °C
CCn1cnc2c(Nc3cccc(Cl)c3)nc(N3CCC(O)CC3)nc21 [Example 72, 6-(3-chloro-phenyl-amino)-9-ethyl-2-(4-hydroxy-piperidino)-9H-purine]	198.7 °C
CCn1cnc2c(Nc3cccc(Cl)c3)nc(N3C(C)CNCC3C)nc21 (stereo not shown) [Example 74, 6-(3-chloro-phenylamino)-2-[(2,6-dimethyl)-piperazino]-9-ethyl-9H-purine]	183 °C
CCn1cnc2c(Nc3cccc(Cl)c3)nc(N3CCCCC3)nc21 [Example 82, 6-(3-chloro-phenyl-amino)-9-ethyl-2-piperidino-9H-purine]	126 °C
CC[C@@H](CO)Nc1nc(Nc2cccc(Cl)c2)c2ncn(CC)c2n1 [Example 83, 6-(3-chloro-phenyl-amino)-9-ethyl-2-[(S)-1-hydroxy-but-2-yl-amino]-9H-purine]	203 °C
CC[C@H](CO)Nc1nc(Nc2cccc(Cl)c2)c2ncn(CC)c2n1 [Example 84, 6-(3-chloro-phenyl-amino)-9-ethyl-2-[(R)-1-hydroxy-but-2-yl-amino)-9H-purine]	200 °C
CCn1cnc2c(Nc3cccc(Cl)c3)nc(NC[C@H](C)O)nc21 [Example 89, 6-(3-chloro-phenyl-amino)-9-ethyl-2-[(S)-2-hydroxy-propylamino]-9H-purine]	161 °C
CC(C)n1cnc2c(Nc3ccc(F)cc3)nc(NCCO)nc21 [Example 96, 6-(4-fluoro-phenyl-amino)-2-(2-hydroxy-ethyl-amino)-9-isopropyl-9H-purine]	139 °C
